Laboratory results taken from patent US20260083865A1, “PROSTATE SPECIFIC MEMBRANE ANTIGEN (PSMA) LIGANDS AND USE THEREOF” (priority 2022, published 2026).
Numbered stars: 1 amine (or outer) side, 2 acyl side, 3 side chain; on linkers, the order of the positions; unused ones are H or OH. Bridge positions count the residues as written; N and C are the ends. Square brackets hold non-standard residues; d marks the D form. Peptide text beside a SMILES is read from it. * marks the point of attachment. Acetyl(1-DOTA-4-piperidyl) = O=C(O)CN1CCN(CC(=O)O)CCN(CC(=O)N2CCC(CC(=O)*)CC2)CCN(CC(=O)O)CC1; X7 = O=C(O)CN1CCN(CC(=O)O)CCN(CC(=O)NC2CCN(CC(=O)*)CC2)CCN(CC(=O)O)CC1; DOTA = O=C(O)CN1CCN(CC(=O)O)CCN(CC(=O)*)CCN(CC(=O)O)CC1; Tyr(3-I) = N[C@@H](Cc1ccc(O)c(I)c1)C(=O)O; Phe(4-Cl) = N[C@@H](Cc1ccc(Cl)cc1)C(=O)O; Propanoyl(3-SO2NH2) = NS(=O)(=O)CCC(=O)*; Arg(Me) = CNC(=N)NCCC[C@H](N)C(=O)O; Dap(CONH2) = NC(=O)NC[C@H](N)C(=O)O; Ethylenediamine = C(CN[*:2])N[*:1]; Hyp = O=C(O)[C@@H]1C[C@@H](O)CN1; X4 = O=C(CN1CCC(N[*:1])CC1)[*:2]; X5 = O=C(c1ccc(CN[*:1])nc1)[*:2]; Lys(Me) = CNCCCC[C@H](N)C(=O)O; Tle = CC(C)(C)[C@H](N)C(=O)O; Deg = CCC(N)(CC)C(=O)O; Aib = CC(C)(N)C(=O)O; Guanidino = N=C(N)N*; X8 = O=C(CC1CCNCC1)*

How the values were obtained:
[1] = target: T1, Fc-fusion protein of human PSMA (hPSMA-Fc) (Homo sapiens, UniProt Q04609); assay: Surface plasmon resonance assay (Biacore T200, single cycle kinetic); assay type: binding; settings: SPR, hPSMA-Fc, single cycle kinetic, 25° C.; category; read-out: pKD CAT (converted)
T1 construct: purchased Acro Biosystems PSA-H5264
T1 sequence (Q04609 44-750 limits assumed): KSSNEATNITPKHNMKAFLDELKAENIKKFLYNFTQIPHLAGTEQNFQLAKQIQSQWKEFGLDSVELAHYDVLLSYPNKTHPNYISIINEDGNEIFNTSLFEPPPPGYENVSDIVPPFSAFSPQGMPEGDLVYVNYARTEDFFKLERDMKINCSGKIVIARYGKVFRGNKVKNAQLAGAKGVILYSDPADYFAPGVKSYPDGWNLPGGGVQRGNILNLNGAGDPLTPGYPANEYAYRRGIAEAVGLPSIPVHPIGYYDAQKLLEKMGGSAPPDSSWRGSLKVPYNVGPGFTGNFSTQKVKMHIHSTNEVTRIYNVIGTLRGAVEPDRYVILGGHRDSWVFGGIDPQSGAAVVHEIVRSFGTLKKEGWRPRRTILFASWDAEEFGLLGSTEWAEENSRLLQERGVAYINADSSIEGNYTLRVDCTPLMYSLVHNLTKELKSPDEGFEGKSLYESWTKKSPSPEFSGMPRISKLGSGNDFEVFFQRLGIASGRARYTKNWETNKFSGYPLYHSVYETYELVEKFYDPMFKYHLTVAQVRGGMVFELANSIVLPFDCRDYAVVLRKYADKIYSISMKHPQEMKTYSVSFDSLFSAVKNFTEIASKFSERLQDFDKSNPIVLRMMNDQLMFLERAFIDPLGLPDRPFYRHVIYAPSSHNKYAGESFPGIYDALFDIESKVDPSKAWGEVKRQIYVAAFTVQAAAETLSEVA
Procedure: Surface plasmon resonance (SPR) studies were performed using a Biacore™ T200 SPR system. Briefly, polarized light is directed towards a gold-labeled sensor surface, and minimum intensity reflected light is detected. The angle of reflected light changes as molecules bind and dissociate.
Fc-fusion protein of human PSMA (hPSMA-Fc, Acro Biosystems, Cat #PSA-H5264) was captured on a Fc-capture chip (Biacore™ CM5 sensor chip coated with ˜300 RU of an Fc-binding peptide). hPSMA-Fc was diluted in Running Buffer (HBST, 0.1% DMSO) to a final concentration of 100 nM and then flushed over the Fc-capture chip to immobilized ˜1000 RUs.
Stock solutions of test compounds were prepared by dissolving each compound in DMSO. DMSO stock solution were diluted 1:1000 in Running Buffer without DMSO. Further sequential dilutions were made with Running Buffer containing 0.1% DMSO. SPR binding analyses were performed in Single Cycle Kinetic (SCK) mode at 25° C. Flow cell coated with the Fc-binding peptide only served as reference flowcell. After each SCK run, hPSMA-Fc was removed with 10 mM glycine buffer, pH 1.5.
In between every three SCK measurements, a blank run with Running Buffer instead of test compound was included to correct for baseline drifts (double blanking method).
Table 5 describes the protocol steps for Fc-fusion target capturing and assessment of the binding kinetics.
For each test compound, SPR raw data in the form of resonance units (RU) were plotted as sensorgrams using the Biacore™ T200 control software. The signal from the blank sensorgram was subtracted from that of the test compound sensorgram (blank corrected). The blank corrected sensorgram was corrected for baseline drift by subtracting the sensorgram of a SCK run without the test compound (running buffer only). The dissociation constant (KD) was calculated from Blank-normalized SPR data using the 1:1 Langmuir binding model from the Biacore™ Insight Evaluation software. The pKD value (negative decadic logarithm of dissociation constant) was calculated using Microsoft Excel.

[2] = target: T2, PSMA-expressing C4-2 cells (Homo sapiens, UniProt Q04609); assay: FACS binding assay (competition with 50 nM PSM-0183); settings: FACS binding, C4-2 cells, competition with 50 nM PSM-0183; category; read-out: pIC50 [C4-2] CAT (converted)
T2 construct: PSMA-expressing C4-2 cells (ATCC, Cat. No. CRL-3314) were cultured in RPMI-1640; host or cells: C4-2 cells
T2 sequence (Q04609 whole entry): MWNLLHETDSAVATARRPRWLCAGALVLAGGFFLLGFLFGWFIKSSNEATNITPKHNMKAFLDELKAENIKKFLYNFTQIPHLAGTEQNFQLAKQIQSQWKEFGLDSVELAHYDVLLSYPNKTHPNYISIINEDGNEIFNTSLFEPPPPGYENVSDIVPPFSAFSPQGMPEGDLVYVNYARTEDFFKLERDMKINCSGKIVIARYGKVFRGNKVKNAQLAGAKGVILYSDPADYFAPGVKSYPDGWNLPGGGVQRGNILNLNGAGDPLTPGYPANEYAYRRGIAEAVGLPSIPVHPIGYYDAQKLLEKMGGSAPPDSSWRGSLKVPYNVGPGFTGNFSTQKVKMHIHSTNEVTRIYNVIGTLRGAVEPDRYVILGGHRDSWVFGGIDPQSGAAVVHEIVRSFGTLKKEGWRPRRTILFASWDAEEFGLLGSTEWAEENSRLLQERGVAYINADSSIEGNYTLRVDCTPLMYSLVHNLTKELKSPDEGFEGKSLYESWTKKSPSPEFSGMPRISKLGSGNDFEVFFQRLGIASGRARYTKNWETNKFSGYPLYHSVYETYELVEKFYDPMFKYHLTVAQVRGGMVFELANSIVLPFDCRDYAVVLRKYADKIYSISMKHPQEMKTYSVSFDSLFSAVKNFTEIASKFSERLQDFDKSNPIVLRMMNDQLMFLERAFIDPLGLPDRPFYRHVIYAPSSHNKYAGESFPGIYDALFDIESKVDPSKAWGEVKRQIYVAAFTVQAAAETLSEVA
Procedure: In order to determine binding of compounds according to the present invention to PSMA-expressing cells, a FACS binding assay was established.
PSMA-expressing C4-2 cells (ATCC, Cat. No. CRL-3314) were cultured in RPMI-1640 (Pan Biotech, Cat. No. P04-18050) including 10% fetal calf serum (Biochrom) and 100 U/ml penicillin and 100 μg/mL streptomycin (Sigma, Cat. No. P0781). Cells were detached with Accutase (Biolegend, Cat. No. BLD-423201) and washed in FACS buffer (PBS (Sigma, Cat. No. D8537) including 1% fetal calf serum). Cells were diluted in FACS buffer to a final concentration of 500,000 cells per mL. 200 μL of the cell suspension were transferred to a u-shaped non-binding 96-well plate (Greiner Bio-One, Cat. No. 650901) and cells were washed in ice-cold FACS buffer.
For IC50 determination, C4-2 cells were incubated with 50 nM PSM-0183 (Ac-Thr-Aib-Phe[Cys-Lys-Arg-Aib-Asn-Cys]-Tle-Thr-Asp-Ttds-Ttds-AF488N3K-NH2) in the presence of increasing concentrations of test compounds at 4° C. for 1 hour. After two wash steps with ice-cold FACS buffer, cells were analyzed in an Attune NxT flow cytometer. Median fluorescence intensities (MFI) of the FITC/AF488-channel were calculated by Attune NxT software. MFI values were plotted against peptide concentration and four parameter logistic (4PL) curve fitting and IC50/pIC50 calculations were performed using ActivityBase software (IDBS).

| SMILES | Kd [1] | IC50 [2] |
| --- | --- | --- |
| CC(=O)N[C@H](C(=O)NC(C)(C)C(=O)N[C@@H](Cc1ccccc1)C(=O)N[C@H]1CSSC[C@@H](C(=O)N[C@H](C(=O)N[C@H](C(=O)N[C@@H](CC(=O)O)C(N)=O)[C@@H](C)O)C(C)(C)C)NC(=O)[C@H](CC(N)=O)NC(=O)[C@H](C)NC(=O)[C@H](CNC(N)=O)NC(=O)[C@H](CCCCN)NC1=O)[C@@H](C)O [PSM-0180, Ac-Thr-Aib-Phe-[Cys-Lys-Gln-Ala-Asn-Cys]-Tle-Thr-Asp-NH2] (Ac-T[Aib]FCK[Dap(CONH2)]ANC[Tle]TD-NH2; disulfide 4-9) | 12.6 to 126 nM | < 200 nM |
| CC(=O)N[C@H](C(=O)NC(C)(C)C(=O)N[C@@H](Cc1ccccc1)C(=O)N[C@H]1CSSC[C@@H](C(=O)N[C@H](C(=O)N[C@H](C(=O)N[C@@H](CC(=O)O)C(N)=O)[C@@H](C)O)C(C)(C)C)NC(=O)[C@H](CC(N)=O)NC(=O)[C@@H]2C[C@@H](O)CN2C(=O)[C@H](CCCNC(=N)N)NC(=O)[C@H](CCCCN)NC1=O)[C@@H](C)O [PSM-0181, Ac-Thr-Aib-Phe-[Cys-Lys-Arg-Hyp-Asn-Cys]-Tle-Thr-Asp-NH2] (Ac-T[Aib]FCKR[Hyp]NC[Tle]TD-NH2; disulfide 4-9) | < 12.6 nM | < 200 nM |
| CCCC[C@H](NC(=O)[C@@H]1CSSC[C@H](NC(=O)[C@H](Cc2ccccc2)NC(=O)[C@H](C)NC(=O)[C@@H](NC(C)=O)[C@@H](C)O)C(=O)N[C@@H](CCCCN)C(=O)N[C@@H](CCCNC(=N)N)C(=O)N[C@@H](C)C(=O)N[C@@H](CC(N)=O)C(=O)N1)C(=O)N[C@@H](C(=O)N[C@H](CC(=O)O)C(N)=O)[C@H](C)O [PSM-0182, Ac-Thr-Ala-Phe-[Cys-Lys-Arg-Ala-Asn-Cys]-Nle-thr-Asp-NH2] | > 501 nM | 1260 to 3160 nM |
| C[C@@H](O)[C@H](NC(=O)CN1CCN(CC(=O)O)CCN(CC(=O)O)CCN(CC(=O)O)CC1)C(=O)NC(C)(C)C(=O)N[C@@H](Cc1ccccc1)C(=O)N[C@H]1CSSC[C@@H](C(=O)N[C@H](C(N)=O)C(C)(C)C)NC(=O)[C@H](CC(N)=O)NC(=O)C(C)(C)NC(=O)[C@H](CCCNC(=N)N)NC(=O)[C@H](CCCCN)NC1=O [PSM-0184, DOTA-Thr-Aib-Phe-[Cys-Lys-Arg-Aib-Asn-Cys]-Tle-NH2] ({DOTA}-T[Aib]FCKR[Aib]NC[Tle]-NH2; disulfide 4-9) | 12.6 to 126 nM | < 200 nM |
| CC(=O)NCc1ccc(C(=O)NC(C)(C)C(=O)N[C@@H](Cc2ccc(Cl)cc2)C(=O)N[C@H]2CSSC[C@@H](C(=O)N[C@H](C(=O)NCCNC(=O)CN3CCN(CC(=O)O)CCN(CC(=O)O)CCN(CC(=O)O)CC3)C(C)(C)C)NC(=O)[C@H](CC(N)=O)NC(=O)C(C)(C)NC(=O)[C@H](CCCNC(=N)N)NC(=O)[C@H](CCCCN)NC2=O)cn1 [PSM-0186, Ac-Pamp-Aib-Pcf-[Cys-Lys-Arg-Aib-Asn-Cys]-Tle-en-DOTA] (Ac-[X5][Aib][Phe(4-Cl)]CKR[Aib]NC[Tle]-{Ethylenediamine-DOTA}; disulfide 4-9) | < 12.6 nM | < 200 nM |
| CCC(CC)(NC(=O)[C@@H](NC(C)=O)[C@@H](C)O)C(=O)N[C@@H](Cc1ccccc1)C(=O)N[C@H]1CSSC[C@@H](C(=O)N[C@H](C(=O)N[C@H](C(N)=O)[C@@H](C)O)C(C)(C)C)NC(=O)[C@H](CC(N)=O)NC(=O)C(C)(C)NC(=O)[C@H](CCCNC(=N)N)NC(=O)[C@H](CCCCN)NC1=O [PSM-0187, Ac-Thr-Deg-Phe-[Cys-Lys-Arg-Aib-Asn-Cys]-Tle-Thr-NH2] (Ac-T[Deg]FCKR[Aib]NC[Tle]T-NH2; disulfide 4-9) | < 12.6 nM | < 200 nM |
| C[C@@H](O)[C@H](NC(=O)[C@@H](NC(=O)[C@@H]1CSSC[C@H](NC(=O)[C@H](Cc2ccc(Cl)cc2)NC(=O)C(C)(C)NC(=O)CCS(N)(=O)=O)C(=O)N[C@@H](CCCCN)C(=O)N[C@@H](CCCNC(=N)N)C(=O)N[C@@H](CCCCNC(=O)CN2CCC(NC(=O)CN3CCN(CC(=O)O)CCN(CC(=O)O)CCN(CC(=O)O)CC3)CC2)C(=O)N[C@@H](CC(N)=O)C(=O)N1)C(C)(C)C)C(N)=O [PSM-0188, SaPr-Aib-Pcf-[Cys-Lys-Arg-Lys(DOTA-APAc)-Asn-Cys]-Tle-Thr-NH2] ({Propanoyl(3-SO2NH2)}-[Aib][Phe(4-Cl)]CKRK(X7)NC[Tle]T-NH2; disulfide 3-8) | < 12.6 nM | < 200 nM |
| CC(=O)N[C@H](C(=O)NC(C)(C)C(=O)N[C@@H](Cc1ccc(Cl)cc1)C(=O)N[C@H]1CSSC[C@@H](C(=O)N[C@H](C(=O)N[C@H](C(N)=O)[C@@H](C)O)C(C)(C)C)NC(=O)[C@H](CC(N)=O)NC(=O)C(C)(C)NC(=O)[C@H](CCC(=O)NC(=N)N)NC(=O)[C@H](CCCCN)NC1=O)[C@@H](C)O [PSM-0189, Ac-Thr-Aib-Pcf-[Cys-Lys-Gln(Gu)-Aib-Asn-Cys]-Tle-Thr-NH2] (Ac-T[Aib][Phe(4-Cl)]CKE(Guanidino)[Aib]NC[Tle]T-NH2; disulfide 4-9) | < 12.6 nM | < 200 nM |
| CC(=O)N[C@H](C(=O)NC(C)(C)C(=O)N[C@@H](Cc1ccc(Cl)cc1)C(=O)N[C@H]1CSSC[C@@H](C(=O)N[C@H](C(=O)N[C@H](C(=O)N[C@H](CCCCNC(=O)CC2CCN(C(=O)CN3CCN(CC(=O)O)CCN(CC(=O)O)CCN(CC(=O)O)CC3)CC2)C(N)=O)[C@@H](C)O)C(C)(C)C)NC(=O)[C@H](CC(N)=O)NC(=O)C(C)(C)NC(=O)[C@H](CCCNC(=N)N)NC(=O)[C@H](CCCCN)NC1=O)[C@@H](C)O [PSM-0190, Ac-Thr-Aib-Pcf-[Cys-Lys-Arg-Aib-Asn-Cys]-Tle-Thr-lys(DOTA-Cmp)-NH2] (Ac-T[Aib][Phe(4-Cl)]CKR[Aib]NC[Tle]T[dK](Acetyl(1-DOTA-4-piperidyl))-NH2; disulfide 4-9) | < 12.6 nM | < 200 nM |
| CC(=O)N[C@H](C(=O)NC(C)(C)C(=O)N[C@@H](Cc1ccccc1)C(=O)N[C@H]1CSSC[C@@H](C(=O)N[C@H](C(=O)N[C@H](C(=O)NC2CCN(CC(=O)N[C@H](CCCCNC(=O)CN3CCN(CC(=O)O)CCN(CC(=O)O)CCN(CC(=O)O)CC3)C(N)=O)CC2)[C@@H](C)O)C(C)(C)C)NC(=O)[C@H](CC(N)=O)NC(=O)C(C)(C)NC(=O)[C@H](CCCNC(=N)N)NC(=O)[C@H](CCCCN)NC1=O)[C@@H](C)O [PSM-0191, Ac-Thr-Aib-Phe-[Cys-Lys-Arg-Aib-Asn-Cys]-Tle-Thr-APAc-lys(DOTA)-NH2] (Ac-T[Aib]FCKR[Aib]NC[Tle]T[X4][dK](DOTA)-NH2; disulfide 4-9) | < 12.6 nM | < 200 nM |
| CNCCCC[C@@H]1NC(=O)[C@@H](NC(=O)[C@H](Cc2ccc(O)c(I)c2)NC(=O)C(C)(C)NC(=O)[C@@H](NC(=O)CC2CCNCC2)[C@@H](C)O)CSSC[C@@H](C(=O)N[C@H](C(=O)N[C@H](C(N)=O)[C@@H](C)O)C(C)(C)C)NC(=O)[C@H](CC(N)=O)NC(=O)C(C)(C)NC(=O)[C@H](CCCNC(=N)NC)NC1=O [PSM-0192, H-Cmp-Thr-Aib-Miy-[Cys-Lys(Me)-Arg(Me)-Aib-Asn-Cys]-Tle-Thr-NH2] (X8-T[Aib][Tyr(3-I)]C[Lys(Me)][Arg(Me)][Aib]NC[Tle]T-NH2; disulfide 4-9) | > 501 nM | > 3160 nM |
